# According to patent US20240327364A1, “THERAPEUTIC TARGETING OF GPR68 TO INDUCE FERROPTOSIS” (University Of Maryland, Baltimore, priority 2023, published 2024):
# Assays:
# NCI-H460 = assay: Cell Titer-Glo viability, Lung cancer, Large cell; assay type: cell-based
# Procedure: (§1) OGM2 kills wide variety of cancer cell types. Cell sensitivity can be classified in to Very Sensitive (LC50<2 μM), Sensitive (LC50=2 to 10 μM), Mildly Sensitive (LC50>10 μM), and Refractory (no killing at 10 μM). The listed established cell were incubated with OGM2 at 2 μM or 10 μM for 72 hours under standard cell culture conditions, and relative cell number was assessed using Cell Titer-Glo Luminescent Cell Viability Assay (Promega™) following the manufacturer's instructions. Luminescence was determined using a Cytation 5 reader and Gen5 software package (BioTek™).
# (§2) Cancer cells, which are very sensitive to killing by OGM2 (LCs <2 μM), with reported mRNA expression of GPR68 and the related proton sensing receptor GPR4. LC50's (concentrations causing 50% lethality) were determined using CellTiter-Glo (Promega™, G7570). Cells were plated in 12-well plates (CELLTREAT Scientific Products, 229112) in 1 ml of DMEM with high glucose, GlutaMAX, HEPES, or RPMI 1640 with Penicillin-Streptomycin (ThermoFisher™, 10564029, 11875119 and 15140122) and 10% FBS. Cells were incubated overnight at 37° C. in 5% CO2. Then 1 mL of fresh media was added with DMSO, OGM, or positive control (Erastin; APExBIO Technology, LLC, B1524) and cells incubated for 3 days. On the third day, all media was removed, cells were rinsed with 1×PBS, PBS was removed, and 200 μL of 1× Passive Lysis Buffer (Promega™, E1941) was added to each well. […]. Subsequently, 20 μL of lysate was added to 100 μL CellTiter-Glo™ reagent on a LUMITRAC 200 plate (Greiner™ bio-one, 82050-726). Plates were briefly spun down and read on a GloMax-Multi Detection System (Promega™).
# The cells listed in the tables above were incubated with OGM2 at 2 μM or 10 μM for 72 hours under standard cell culture conditions, and relative cell number was assessed using Cell Titer-Glo Luminescent Cell Viability Assay (Promega™) following the manufacturer's instructions. Luminescence was determined using a Cytation 5 reader and Gen5 software package (BioTek™). RNA expression of GPR68 and GPR4 in the corresponding cancer cell lines are listed, according to the publicly available The Human Protein Atlas version 22.0 and Ensembl version 103.38 (see proteinatlas.org). The consensus normalized expression value (“nTPM”=normalize transcript per million) was calculated as the maximum nTPM value for each gene in the two data sources.
# A549 [1] = assay: Crystal violet viability, 24 hours; assay type: cell-based
# Procedure: A549 lung cancer cells were plated at different concentrations of cell per well in a 96-well plate. On the following day cells were treated with increasing doses of OGM2. Twenty-four hours later cells viability was assayed with crystal violet and normalized to untreated.
# A549 [2] = assay: Cell Titer-Glo viability, Lung Adenocarcinoma; assay type: cell-based; settings: 72 hours
# Procedure: as §1
# as §2, with “Subsequently, 20 μL of lysate was added to 100 μL CellTiter-Glo™ reagent on a LUMITRAC 200 plate (Greiner™ bio-one, 82050-726).” left out
# The cells listed in the tables above were incubated with OGM2 at 2 μM or 10 μM for 72 hours under standard cell culture conditions, and relative cell number was assessed using Cell Titer-Glo Luminescent Cell Viability Assay (Promega™) following the manufacturer's instructions. Luminescence was determined using a Cytation 5 reader and Gen5 software package (BioTek™). […] The consensus normalized expression value (“nTPM”=normalize transcript per million) was calculated as the maximum nTPM value for each gene in the two data sources.
# S1P2 = target: T1, S1P2 (Homo sapiens, UniProt O95136); assay: GPCR Profiler; assay type: cell-based
# T1 construct: host or cells: Chem-1 cells with Gα15
# T1 sequence (O95136 whole entry, species assumed): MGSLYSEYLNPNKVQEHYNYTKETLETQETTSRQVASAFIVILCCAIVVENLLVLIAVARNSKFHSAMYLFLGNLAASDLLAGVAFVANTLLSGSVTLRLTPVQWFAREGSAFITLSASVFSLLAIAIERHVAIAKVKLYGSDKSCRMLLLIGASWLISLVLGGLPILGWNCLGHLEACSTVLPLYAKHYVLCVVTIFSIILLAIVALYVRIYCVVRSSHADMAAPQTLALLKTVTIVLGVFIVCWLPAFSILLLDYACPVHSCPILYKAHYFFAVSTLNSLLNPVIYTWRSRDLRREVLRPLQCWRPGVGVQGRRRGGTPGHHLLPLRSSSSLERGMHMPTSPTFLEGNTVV
# CXCR2 = target: T2, CXCR2 (Homo sapiens, UniProt P25025); assay: GPCR Profiler; assay type: cell-based
# T2 construct: host or cells: Chem-1 cells with Gα15
# T2 sequence (P25025 whole entry, species assumed): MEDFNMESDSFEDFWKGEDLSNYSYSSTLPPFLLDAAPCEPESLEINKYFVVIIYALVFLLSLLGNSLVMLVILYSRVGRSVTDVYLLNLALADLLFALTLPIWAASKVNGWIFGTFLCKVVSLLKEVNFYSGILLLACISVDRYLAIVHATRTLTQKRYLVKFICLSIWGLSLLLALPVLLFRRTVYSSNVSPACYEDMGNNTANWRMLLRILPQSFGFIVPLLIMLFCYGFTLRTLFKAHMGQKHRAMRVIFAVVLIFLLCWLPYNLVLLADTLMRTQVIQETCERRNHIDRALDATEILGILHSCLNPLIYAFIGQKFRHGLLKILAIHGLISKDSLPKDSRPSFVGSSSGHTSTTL
# OX1 = target: T3, OX1 (Homo sapiens, UniProt O43613); assay: GPCR Profiler; assay type: cell-based
# T3 construct: host or cells: Chem-1 cells expressing Gα15
# T3 sequence (O43613 whole entry): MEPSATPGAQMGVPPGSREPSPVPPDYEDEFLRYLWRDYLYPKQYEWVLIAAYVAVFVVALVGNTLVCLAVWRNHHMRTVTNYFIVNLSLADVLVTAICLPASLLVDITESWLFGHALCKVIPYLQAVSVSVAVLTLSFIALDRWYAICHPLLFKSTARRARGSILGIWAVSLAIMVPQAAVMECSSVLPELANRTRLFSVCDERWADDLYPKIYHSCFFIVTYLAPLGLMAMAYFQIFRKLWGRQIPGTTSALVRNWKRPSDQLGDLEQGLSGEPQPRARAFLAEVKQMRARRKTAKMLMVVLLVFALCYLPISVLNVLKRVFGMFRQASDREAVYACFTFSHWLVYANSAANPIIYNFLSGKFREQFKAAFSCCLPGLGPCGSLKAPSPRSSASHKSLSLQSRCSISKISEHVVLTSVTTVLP
# Y2 = target: T4, Y2 (Homo sapiens, UniProt P49146); assay: GPCR Profiler; assay type: cell-based
# T4 construct: host or cells: Chem-1 cells expressing Galpha15
# T4 sequence (P49146 whole entry): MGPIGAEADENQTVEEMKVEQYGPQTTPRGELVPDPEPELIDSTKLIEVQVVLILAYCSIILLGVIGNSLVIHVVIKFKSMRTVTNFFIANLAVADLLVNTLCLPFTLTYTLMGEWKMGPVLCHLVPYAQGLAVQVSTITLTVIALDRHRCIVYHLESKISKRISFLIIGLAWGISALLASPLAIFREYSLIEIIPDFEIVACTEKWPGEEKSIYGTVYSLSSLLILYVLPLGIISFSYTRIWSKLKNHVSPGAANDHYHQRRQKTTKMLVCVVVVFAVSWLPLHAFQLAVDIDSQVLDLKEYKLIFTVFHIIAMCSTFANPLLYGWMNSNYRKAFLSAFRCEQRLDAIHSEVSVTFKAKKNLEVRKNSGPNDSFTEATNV
# PAK6 = target: T5, PAK6 (Homo sapiens, UniProt Q9NQU5); assay: KinomeScan; assay type: binding; settings: read-out: % Control
# T5 construct: purchased DiscoveRx
# YANK3 = target: T6, YANK3 (Homo sapiens, UniProt Q86UX6); assay: KinomeScan; assay type: binding; settings: read-out: % Control
# T6 construct: purchased DiscoveRx
# SRPK3 = target: T7, SRPK3 (Homo sapiens, UniProt Q9UPE1); assay: KinomeScan; assay type: binding; settings: read-out: % Control
# T7 construct: purchased DiscoveRx (Fremont, CA)
# T7 sequence (Q9UPE1 whole entry): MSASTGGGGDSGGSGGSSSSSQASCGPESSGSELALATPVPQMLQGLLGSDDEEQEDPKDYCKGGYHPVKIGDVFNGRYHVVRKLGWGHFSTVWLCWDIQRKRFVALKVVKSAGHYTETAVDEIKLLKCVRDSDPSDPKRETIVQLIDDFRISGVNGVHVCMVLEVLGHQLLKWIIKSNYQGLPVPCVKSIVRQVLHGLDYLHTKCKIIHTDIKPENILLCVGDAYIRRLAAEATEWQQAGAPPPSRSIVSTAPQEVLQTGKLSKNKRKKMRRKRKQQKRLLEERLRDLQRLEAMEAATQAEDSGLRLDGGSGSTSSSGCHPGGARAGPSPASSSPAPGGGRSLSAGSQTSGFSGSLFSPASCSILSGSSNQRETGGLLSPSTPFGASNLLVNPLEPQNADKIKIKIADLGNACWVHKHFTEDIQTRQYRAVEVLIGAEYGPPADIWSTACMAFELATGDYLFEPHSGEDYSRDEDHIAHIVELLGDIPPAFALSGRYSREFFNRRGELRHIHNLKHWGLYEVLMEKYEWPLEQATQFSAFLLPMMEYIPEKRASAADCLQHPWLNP
# CLK3 = CLK3 (Homo sapiens, UniProt P49761); assay: KinomeScan; assay type: binding; settings: read-out: % Control
# Sequence of CLK3 (P49761 whole entry): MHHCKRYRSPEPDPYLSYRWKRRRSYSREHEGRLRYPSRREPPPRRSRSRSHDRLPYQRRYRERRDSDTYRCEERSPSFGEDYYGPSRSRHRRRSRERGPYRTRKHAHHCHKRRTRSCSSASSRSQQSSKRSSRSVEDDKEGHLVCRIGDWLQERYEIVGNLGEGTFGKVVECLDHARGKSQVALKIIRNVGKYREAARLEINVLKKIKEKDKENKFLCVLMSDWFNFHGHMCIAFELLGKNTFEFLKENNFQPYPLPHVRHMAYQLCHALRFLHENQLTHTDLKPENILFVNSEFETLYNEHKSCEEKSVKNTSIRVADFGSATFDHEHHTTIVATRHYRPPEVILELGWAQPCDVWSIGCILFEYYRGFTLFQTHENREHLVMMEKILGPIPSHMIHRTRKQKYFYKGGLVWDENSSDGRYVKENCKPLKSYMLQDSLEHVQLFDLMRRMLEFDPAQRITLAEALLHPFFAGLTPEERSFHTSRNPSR
# TRPM6 = target: T8, TRPM6 (Homo sapiens, UniProt Q9BX84); assay: KinomeScan; assay type: binding; settings: read-out: % Control
# T8 construct: purchased DiscoveRx (Fremont, CA)
# CAMK2G = target: T9, CAMK2G (Homo sapiens, UniProt Q13555); assay: KinomeScan; assay type: binding; settings: read-out: % Control
# T9 construct: purchased DiscoveRx (KinomeScan service)
# FLT3 = target: T10, FLT3 (Homo sapiens, UniProt P36888); assay: KinomeScan; assay type: binding; settings: read-out: % Control
# T10 construct: purchased DiscoveRx (Fremont, CA)
# ALK = target: T11, ALK (Homo sapiens, UniProt Q9UM73); assay: KinomeScan; assay type: binding; settings: read-out: % Control
# T11 construct: purchased DiscoveRx (Fremont, CA)
# CASK = target: T12, CASK (Homo sapiens, UniProt O14936); assay: KinomeScan; assay type: binding; settings: read-out: % Control
# T12 construct: purchased DiscoveRx (KinomeScan service)
# CAMK1D = target: T13, CAMK1D (Homo sapiens, UniProt Q8IU85); assay: KinomeScan; assay type: binding; settings: read-out: % Control
# T13 construct: purchased DiscoveRx (KinomeScan service)
# PIPSK1A = target: T14, PIPSK1A (Homo sapiens, UniProt Q99755); assay: KinomeScan; assay type: binding; settings: read-out: % Control
# T14 construct: purchased DiscoveRx (Fremont, CA)
# T14 sequence (Q99755 whole entry): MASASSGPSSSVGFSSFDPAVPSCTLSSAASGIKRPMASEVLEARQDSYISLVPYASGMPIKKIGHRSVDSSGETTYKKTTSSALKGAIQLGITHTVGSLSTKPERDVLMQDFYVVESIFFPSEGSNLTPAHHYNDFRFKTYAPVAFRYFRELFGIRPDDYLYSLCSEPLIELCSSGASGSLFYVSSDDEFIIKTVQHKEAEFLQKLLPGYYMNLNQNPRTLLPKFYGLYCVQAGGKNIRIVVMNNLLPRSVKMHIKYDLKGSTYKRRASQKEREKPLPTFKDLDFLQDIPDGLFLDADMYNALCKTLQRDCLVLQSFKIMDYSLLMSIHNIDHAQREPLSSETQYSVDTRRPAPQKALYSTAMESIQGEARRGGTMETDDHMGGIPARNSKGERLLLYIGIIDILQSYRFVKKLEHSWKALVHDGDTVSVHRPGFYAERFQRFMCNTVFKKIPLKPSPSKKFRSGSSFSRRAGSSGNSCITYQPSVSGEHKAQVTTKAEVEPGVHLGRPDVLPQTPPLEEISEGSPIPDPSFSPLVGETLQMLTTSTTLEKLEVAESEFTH
# LATS2 = target: T15, LATS2 (Homo sapiens, UniProt Q9NRM7); assay: KinomeScan; assay type: binding; settings: read-out: % Control
# T15 construct: purchased DiscoveRx
# AURKB = target: T16, AURKB (Homo sapiens, UniProt Q96GD4); assay: KinomeScan; assay type: binding; settings: read-out: % Control
# T16 construct: purchased DiscoveRx (Fremont, CA)
# MCHR2 = target: T17, MCHR2 (Homo sapiens, UniProt Q969V1); assay: GPCR Profiler; assay type: cell-based
# T17 construct: host or cells: Chem-1 cells expressing Gα15
# T17 sequence (Q969V1 whole entry, species assumed): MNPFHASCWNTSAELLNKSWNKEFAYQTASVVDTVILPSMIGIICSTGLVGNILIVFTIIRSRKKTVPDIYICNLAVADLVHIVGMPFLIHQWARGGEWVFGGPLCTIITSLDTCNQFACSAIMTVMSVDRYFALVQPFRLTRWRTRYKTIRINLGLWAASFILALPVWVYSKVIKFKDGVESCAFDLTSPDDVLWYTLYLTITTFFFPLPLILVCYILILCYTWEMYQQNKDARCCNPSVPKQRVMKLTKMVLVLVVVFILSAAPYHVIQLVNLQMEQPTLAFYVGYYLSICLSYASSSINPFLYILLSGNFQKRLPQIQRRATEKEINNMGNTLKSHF
# MAP3K15 = target: T18, MAP3K15 (Homo sapiens, UniProt Q6ZN16); assay: KinomeScan; assay type: binding; settings: read-out: % Control
# T18 construct: purchased DiscoveRx (Fremont, CA)
# T18 sequence (Q6ZN16 whole entry): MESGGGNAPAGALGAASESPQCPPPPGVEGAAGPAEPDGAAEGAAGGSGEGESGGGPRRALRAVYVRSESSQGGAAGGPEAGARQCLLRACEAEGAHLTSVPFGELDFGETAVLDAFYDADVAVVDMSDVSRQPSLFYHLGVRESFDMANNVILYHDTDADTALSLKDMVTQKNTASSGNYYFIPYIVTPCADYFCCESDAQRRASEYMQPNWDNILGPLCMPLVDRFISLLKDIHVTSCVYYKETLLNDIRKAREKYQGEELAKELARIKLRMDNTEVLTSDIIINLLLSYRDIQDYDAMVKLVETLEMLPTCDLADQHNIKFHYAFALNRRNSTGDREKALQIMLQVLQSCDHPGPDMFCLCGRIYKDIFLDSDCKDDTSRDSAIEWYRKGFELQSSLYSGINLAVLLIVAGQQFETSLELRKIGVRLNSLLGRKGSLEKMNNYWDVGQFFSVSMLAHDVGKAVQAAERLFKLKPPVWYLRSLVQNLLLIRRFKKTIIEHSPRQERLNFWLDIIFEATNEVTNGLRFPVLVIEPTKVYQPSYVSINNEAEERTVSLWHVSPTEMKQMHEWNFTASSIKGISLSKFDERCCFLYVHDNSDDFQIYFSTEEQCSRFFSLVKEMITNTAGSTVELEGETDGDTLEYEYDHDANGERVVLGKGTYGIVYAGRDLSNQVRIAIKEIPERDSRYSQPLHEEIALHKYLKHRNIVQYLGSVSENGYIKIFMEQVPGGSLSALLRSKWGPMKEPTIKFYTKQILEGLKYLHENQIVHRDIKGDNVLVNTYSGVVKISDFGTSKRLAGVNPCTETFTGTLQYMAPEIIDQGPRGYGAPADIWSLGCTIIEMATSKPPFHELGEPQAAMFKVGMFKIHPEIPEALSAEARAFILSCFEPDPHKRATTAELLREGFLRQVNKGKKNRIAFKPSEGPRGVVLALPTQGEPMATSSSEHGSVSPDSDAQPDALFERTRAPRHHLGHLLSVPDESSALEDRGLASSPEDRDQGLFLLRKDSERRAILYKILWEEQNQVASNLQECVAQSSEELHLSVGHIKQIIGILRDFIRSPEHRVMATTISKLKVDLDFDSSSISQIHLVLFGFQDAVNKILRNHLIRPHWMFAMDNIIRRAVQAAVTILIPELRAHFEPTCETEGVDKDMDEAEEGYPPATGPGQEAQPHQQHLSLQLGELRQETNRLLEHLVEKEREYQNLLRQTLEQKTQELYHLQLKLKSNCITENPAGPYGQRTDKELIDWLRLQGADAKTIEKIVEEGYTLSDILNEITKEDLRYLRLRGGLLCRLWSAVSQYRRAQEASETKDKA
# MST3 = target: T19, MST3 (Homo sapiens, UniProt Q9Y6E0); assay: KinomeScan; assay type: binding; settings: read-out: % Control
# T19 construct: purchased DiscoveRx
smiles,measurement,setting,value
CCc1ccc2c(c1)C1(NN=C(c3ccccc3)S1)C(=O)N2 (stereo not drawn) [OGM2],Class,NCI-H460,Sensitive (Sensitive (LC50=2 to 10 μM))
same,% Survival 2 μM OGM,NCI-H460; 72 hours,51.7%
same,% Survival 10 μM OGM,NCI-H460; 72 hours,26.5%
same,CC50,"NCI-H460; Homo sapiens, NCI-H460, 72 hours, read-out: LC50 (the source's name)",2000 to 10000 nM
same,toxicity,A549 [1],relatively High doses of OGM2 are necessary for toxicity in A549 cells
same,% Survival 2 μM OGM,A549 [2],33.6%
same,% Survival 10 μM OGM,A549 [2],18.0%
same,CC50,"A549 [2]; Homo sapiens, A549, read-out: LC50 (the source's name)",< 2000 nM
"CCc1ccc2c(c1)C1(NN=C(c3cccc4ccccc34)S1)C(=O)N2 (stereo not drawn) [OGM1, 5-ethyl-5′-naphthalen-1-ylspiro[1H-indole-3,2′-3H-1,3,4-thiadiazole]-2-one]",Antagonism,S1P2; 10 uM,−3.3
same,Agonism,S1P2; 12.5 uM,0.5
same,Antagonism,CXCR2; 10 uM,−3.1
same,Agonism,CXCR2; 12.5 uM,0.5
same,Antagonism,OX1; 10 uM,1.6
same,Agonism,OX1; 12.5 uM,1.4
same,Antagonism,Y2; 10 uM,−0.6
same,Agonism,Y2; 12.5 uM,2.5
same,remaining binding at 10 µM,PAK6,89%
same,remaining binding at 10 µM,YANK3,100%
same,remaining binding at 10 µM,SRPK3,100%
same,remaining binding at 10 µM,CLK3,100%
same,remaining binding at 10 µM,TRPM6,80%
same,remaining binding at 10 µM,CAMK2G,85%
same,remaining binding at 10 µM,FLT3,79%
same,remaining binding at 10 µM,ALK,100%
same,remaining binding at 10 µM,CASK,90%
same,remaining binding at 10 µM,CAMK1D,68%
same,remaining binding at 10 µM,PIPSK1A,100%
same,remaining binding at 10 µM,LATS2,100%
same,remaining binding at 10 µM,AURKB,86%
same,Antagonism,MCHR2; 10 uM,−8.2
same,Agonism,MCHR2; 12.5 uM,0.3
same,remaining binding at 10 µM,MAP3K15,100%
same,remaining binding at 10 µM,MST3,61%
